Measurements: patent US20080318911A1, “20-Cyclopropyl, 26,27-Alkyl/Haloalkyl Vitamin D3 Compounds and Methods of Use Thereof” (BIOXELL S.P.A., priority 2004, published 2008)
Values after ≈ are worked out from the molar mass of the structure shown.

What was measured:
RT112 = assay: Proliferation assay using bladder cancer cell lines: RT112; assay type: cell-based, human; details: 72 h culture, CyQuant proliferation assay
Protocol: (§1) Bladder cancer cell lines (T24, RT112, HT1376 and RT4 are human bladder cancer cell lines; NHEK are normal human keratinocytes) were obtained from the European Collection of Cell Cultures (Salisbury, UK). Cells were plated at 3×10^3 per well, in flat bottomed 96-well plates in 100 μl of DMEM medium containing: 5% Fetal Clone 1,50 μg/l gentamicin, 1 mM sodium pyruvate and 1% non-essential amino acids. After culturing for 24 h at 37° C. in 5% CO2, to allow cells to adhere to the plates, VDR ligands (compounds (1)-(14)) were added at concentrations ranging from 100 μM to 0.3 μM in 100 μl of above-mentioned complete medium. After a further 72 h of culture, cell proliferation was measured using a fluorescence-based proliferation assay kit. (CyQuant Cell Proliferation Assay Kit, Molecular Probes, Eugene, Oreg., USA). The IC50 was calculated from the regression curve of the titration data.

[1] = Theoretical maximum absorbable dose (MAD), human intestine; details: for MAD (ug) human (PAMPA): calculated using PAMPA permeability
Protocol: (§2) To evaluate the intestinal absorption potential of selected compounds, the maximum absorbable dose (MAD) in mouse, rat and human intestines was also calculated using a modification of the original equation (Johnson 1996, Hilgers 2003): MAD (mg)=S·Pe·(A/ILV)·SIV·SITT (Eq. 1), where S is the solubility measured at pH 7.4 (mg/ml), Pe is the permeability measured in artificial membranes (PAMPA) or in the apical to basolateral direction of Caco-2 cells (cm/sec), A is the intestinal surface area (cm^2), ILV is the intestinal lumen volume (cm^3), SIV is the small intestinal volume (ml) and SITT is the small intestinal transit time (sec).

Caco-2 cells = assay: Apparent permeability on Caco-2 cells; assay type: in vitro ADME, Human; details: for Papp_A > B / Papp_B >: 10 μM, 2 h; for Mass Bal A > B: unit assumed
Protocol: (§3) Apparent Permeability on Caco-2 cells. Human colon adenocarcinoma (Caco-2) cells were obtained from the American Type Culture Collection (Rockville, Md.). Permeability studies were performed using a 24-well format in both transport directions, apical to basolateral (A→B) and basolateral to apical (B→A), on Caco-2 monolayers. Fresh donor solution containing 10 μM test compound was added to either the apical or the basolateral side, while drug-free medium was placed on the opposite side. The 24-transwell plates were placed on a plate shaker at 37° C. After 2 h, the buffer from the receiving and donor chambers were collected and aliquots were analysed via LC-MS/MS. The data reported were the permeability cm·10^−6/sec and the efflux ratio.

[2] = Apparent permeability on Caco-2 cells; assay type: in vitro ADME, Human; details: human, Caco-2, Table 8; for Papp A→B at 2 h, 10 μM: apical to basolateral, read-out: Caco2 Papp_AB; for Papp B→A at 2 h, 10 μM: basolateral to apical, read-out: Caco2 Papp_BA
Protocol: as §3

[3] = biological target: T1, human cDNA expressed CYP3A4 (Homo sapiens, UniProt P08684); assay: Metabolic stability (hCYP3A4); assay type: in vitro ADME; details: 2 μM, 60 min at 37° C.
T1 construct: purchased Gentest
Protocol: Metabolic Stability (hCYP34A4). The relative stability of the substrate was determined by measuring the amount of substrate remaining following incubation with human cDNA expressed CYP3A4 microsomal preparations (Gentest, 6 pmol) against a control microsomal incubation containing no active cytochrome P450. The assay was performed in a 96-well plate format. Each compound was incubated at a concentration of 2 μM for 60 min at 37° C. LC-MS/MS was used for determining the compound remaining after incubation. The results were expressed as % remaining.

[4] = test system: Renin mRNA in As4.1 cells; assay: Renin mRNA inhibition in murine juxtaglomerular cell line As4.1; assay type: cell-based; details: Mus musculus, 24 h, real time PCR normalized versus β-actin, read-out: Renin mRNA inh.As4.1/wt
Protocol: As4.1 cells (80% subconfluent) were treated in complete medium with compounds of the invention at 10^−8, 10^−9 and 10^−10 M for 24 h. Total RNA was extracted using RNeasy Mini kit (Qiagen); treated with DNase I (Qiagen) and Reverse Transcription Reagent (Applied Biosystems) with Random Examers were used for reverse transcription according to the manufacturers' instructions. Real Time PCR analysis was performed in multiplex using commercially available β-actin VIC-conjugated probe (cat. n. 4352341E, Applied Biosystems) and custom designed mRENIN FAM-conjugated probe (Assay by Design, Applied Biosystems; Forward: […]; Reverse: […]; Probe: FAM-[…]-MGB). Reactions were performed in a 25 μL volume containing 12,5 μl 2× Master Mix (Applied Biosystems), 10 ng/reaction/well cDNA, and 2,5 μM each gene-specific primer. An ABI PRISM 7700 analyzer (Applied Biosystems) was used at 50° C. for 2 minutes and 95° C. for 10 minutes, followed by 40 cycles at 95° C. for 15 seconds and 60° C. for 1 minute. Cycle threshold (Ct) values were exported onto Excel worksheets for analysis. Test cDNA results were normalized versus mouse β-actin housekeeping gene. Fold differences in gene expression between the subtracted versus the unsubtracted populations were expressed using the method of 2^−ΔΔCt. (Table 6)

NHEK = assay: Proliferation assay: NHEK normal human keratinocytes; assay type: cell-based; details: 72 h culture, CyQuant proliferation assay
Protocol: as §1

[5] = test system: IFN-γ production by allogeneic PBMC; assay: IFN-γ production in the mixed leukocyte response (MLR); assay type: cell-based; details: 120 h; MLR of allogeneic PBMC, 5 days, ELISA; read-out: INF-γ IC50
Protocol: Immature dendritic cells (DC) were prepared as described in Romani, N. et al. (Romani, N. et al. (1996) J. Immunol. Meth. 196:137). IFN-γ production by allogeneic T cell activation in the mixed leukocyte response (MLR) was determined as described in Penna, G., et al., J Immunol., 164: 2405-2411 (2000).
Briefly, peripheral blood mononuclear cells (PBMC) were separated from buffy coats by Ficoll gradient and the same number (3×10^5) of allogeneic PBMC from 2 different donors were co-cultured in 96-well flat-bottom plates. The vitamin D3 compounds were added to each of the cultures.

[6] = Solubility in aqueous buffer; assay type: physicochemical; details: kinetic from dmso stock; for solubility at 2 h: pH 7, 2 h; for solubility at 24 h: pH 7, 24 h; for solubility: pH 7.4, aqueous buffer
Protocol: […] A 96-well plate format assay was used. […] Solutions were filtered through a 0.22 μm and concentrations of the concentration of the compound in the filtrate was determined using LC-MS/MS in comparison with 1 and 10 μM standards. The measurements were expressed as mM.

RT4 = assay: Proliferation assay using bladder cancer cell lines: RT4; assay type: cell-based, human; details: 72 h culture, CyQuant proliferation assay
Protocol: as §1

[7] = Theoretical maximum absorbable dose (MAD), mouse intestine; details: for MAD (ug) mouse (PAMPA): calculated using PAMPA permeability
Protocol: as §2

[8] = Permeability by passive diffusion (PAMPA); assay type: in vitro ADME; details: for PAMPA % Memb: % retention in the membrane; for Papp at 4 h, 10 μM: PAMPA
Protocol: Permeability by Passive Diffusion (PAMPA). Experiments were performed in 96-well acceptor and donor plates using 15% soy lecithin in n-dodecane artificial membranes. The acceptor plate (96 well hydrophobic filter plate (MAIP N45, Millipore)) was prepared by adding 4 μL of artificial membrane material on the top of the filter and the plate was filled with 200 μL of HEPES buffered HBSS (pH 7.4). The donor plate (an indented 96-well plate from p-ION, MA) was filled with 200 μL of HEPES buffered HBSS (pH 7.4) containing 10 μM of the test compounds. The acceptor plate was placed onto the donor plate to form a “sandwich” and was incubated at 37° C. for 4 hours. After the incubation period, acceptor, donor and initial donor solution (reference) were analysed via LC-MS/MS. Data were reported as bilateral Peff in cm×10^−6/sec and % retention in the membrane.

[9] = Theoretical maximum absorbable dose (MAD), rat intestine; details: for MAD (ug) rat (PAMPA): calculated using PAMPA permeability
Protocol: as §2

[10] = Determination of Maximum Tolerated Dose (MTD) in mice; details: mouse, in vivo, po; female C57BL/6 mice, p.o. daily for four days; highest dose without hypercalcemia (serum calcium >10.7 mg/dl)
[11] = test system: human stromal bladder cells; assay: Basal growth of human stromal bladder cells; assay type: cell-based; details: FIG. 2
Text: The Inventors confirmed the presence of vitamin D receptors (VDRs), as previously reported in the literature, on these cells (see below in FIG. 1).
The maximum tolerated dose (MTD) in rats is also listed for each compound (Table 5).

HT1376 = assay: Proliferation assay using bladder cancer cell lines: HT1376; assay type: cell-based; details: Homo sapiens, HT-1376; 72 h culture, CyQuant proliferation assay
Protocol: as §1

[12] = calculated using Caco2-AB permeability

T1 sequence (P08684 whole entry): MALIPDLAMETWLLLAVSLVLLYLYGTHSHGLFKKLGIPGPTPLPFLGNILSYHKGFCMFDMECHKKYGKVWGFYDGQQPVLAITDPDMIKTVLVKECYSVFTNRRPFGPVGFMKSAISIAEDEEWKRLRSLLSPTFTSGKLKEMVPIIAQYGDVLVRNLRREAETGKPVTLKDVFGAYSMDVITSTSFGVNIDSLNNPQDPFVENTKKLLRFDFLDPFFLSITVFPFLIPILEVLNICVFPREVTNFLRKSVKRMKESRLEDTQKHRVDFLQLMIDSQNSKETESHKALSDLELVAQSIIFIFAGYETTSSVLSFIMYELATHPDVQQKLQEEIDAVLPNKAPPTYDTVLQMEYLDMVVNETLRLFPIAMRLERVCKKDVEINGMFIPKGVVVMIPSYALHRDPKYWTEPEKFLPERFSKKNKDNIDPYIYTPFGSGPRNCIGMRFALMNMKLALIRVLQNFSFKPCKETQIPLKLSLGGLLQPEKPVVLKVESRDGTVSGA

Structure (SMILES) | IC50 (RT112; Homo sapiens, RT-112) [µM] | MAD (ug) human (PAMPA) [1] [µg] | Papp_A > B (Caco-2 cells; apical to basolateral) [cm·10^−6/sec] | Mass Bal A > B (Caco-2 cells; apical to basolateral) [%] | Mass Bal B > A (Caco-2 cells; basolateral to apical) [%] | Papp_B > (Caco-2 cells; basolateral to apical) [cm·10^−6/sec] | Papp A→B at 2 h, 10 μM [2] [nm/s] | CYP3A4 stability [3] [% remaining] | IC50 [4] [µM] | IC50 (NHEK) [µM] | IC50 [5] [nM] | solubility at 2 h [6] [µM] | solubility at 24 h [6] [µM] | solubility [6] [µg/mL] | IC50 (RT4; Homo sapiens, RT-4) [µM] | MAD (ug) mouse (PAMPA) [7] [µg] | PAMPA % Memb [8] [%] | Papp at 4 h, 10 μM ([8]; pH 7.4, Table 8) [nm/s] | MAD (ug) rat (PAMPA) [9] [µg] | MTD at 4 days [10] [µg/kg] | further results
CC(C)(O)CCCC1(C2=CCC3/C(=C/C=C4/CC(O)C[C@H](O)C4)CCC[C@]23C)CC1 (stereo partly drawn) [Compound 9, 1α,25-Dihydroxy-16-ene-20-cyclopropyl-19-nor-cholecalciferol] | > 30 | 8023.11 | 4.8 | 36.7 | 89.1 | 6.5 | 48.2 | 33.3 | 0.00878 | 6.1 | 0.031 | 19.9 (≈ 8.25 µg/mL) | 21.6 (≈ 8.96 µg/mL) | 8.27 (≈ 19.9 µM) | 9.9 | 23.61 | 97.1 | 360 | 115.08 | 1 | Papp B→A at 2 h, 10 μM [2]: 64.6 nm/s; Papp at 4 h, 10 μM ([8]; pH 7.4, 10 μM, pH 7.4, 37° C., 4 hours, Table 9): 360 nm/s
C=C1/C(=C\C=C2/CCC[C@]3(C)C(C4(C/C=C\C(O)(C(F)(F)F)C(F)(F)F)CC4)=CCC23)CC(O)C[C@@H]1O (stereo partly drawn) [Compound 8, 1α,25-Dihydroxy-16-ene-20-cyclopropyl-23,24-Z-ene-26,27-hexafluoro-cholecalciferol] | 15.5 | 716.81 | – | – | – | – | – | 52.7 | 0.00161 | 3.6 | 0.033 | < 1 | 1.6 (≈ 0.852 µg/mL) | 0.533 (≈ 1 µM) | 3.3 | 2.11 | 57.6 | 500 | 10.28 | 1 | inhibiting the basal growth of bladder cells [11]: effective
C[C@]12CCC/C(=C\C=C3\CC(O)C[C@H](O)C3)C1CC=C2C1(C/C=C\C(O)(C(F)(F)F)C(F)(F)F)CC1 (stereo partly drawn) [Compound 7, 1α,25-Dihydroxy-16-ene-20-cyclopropyl-23,24-Z-ene-26,27-hexafluoro-19-nor-cholecalciferol] | 9.6 | 2788.31 | 0.0 | 13.1 | 83.3 | 0.0 | – | 58.3 | 0.00258 | 4.4 | 0.055 | 4.2 (≈ 2.19 µg/mL) | 4.1 (≈ 2.13 µg/mL) | 2.17 (≈ 4.16 µM) | 2.2 | 8.20 | 58.1 | 478 | 39.99 | 0.3 | Caco2 Papp_AB (Caco-2 cells; apical to basolateral, Table 8): 0.00 10-6 cm/sec; Caco2 Papp_BA (Caco-2 cells; basolateral to apical, Table 8): 0.00 10-6 cm/sec
C=C1/C(=C\C=C2/CCC[C@]3(C)C([C@H](C)CCCC(C)(C)O)CC[C@@H]23)C[C@@H](O)C[C@@H]1O (stereo partly drawn) [1,25(OH)2D3, 1,25-dihydroxycholecalciferol, reference compound] | – | – | – | – | – | – | – | – | – | 4.5 | 0.0496 | – | – | – | – | – | – | – | – | 0.3 | IC50 (RT112): 28.7 µM; IC50 (RT112; Homo sapiens, RT-112, 72 h): 19 µM; inhibiting the basal growth of bladder cells [11]: effective; IC50 (HT1376): 50 µM; IC50 (RT4): 26 µM; IC50 (RT4; Homo sapiens, RT-4, 72 h): 45 µM
C[C@]12CCC/C(=C\C=C3\CC(O)C[C@H](O)C3)C1CC=C2C1(CC#CC(O)(C(F)(F)F)C(F)(F)F)CC1 (stereo partly drawn) [Compound 3, 1α,25-Dihydroxy-16-ene-20-cyclopropyl-23,24-yne-26,27-hexafluoro-19-nor-cholecalciferol] | 22.7 | – | 3.0 | 8.8 | 50.5 | 6.0 | 30 | 45.5 | 0.00073 | 1 | 0.014 | 1.3 (≈ 0.674 µg/mL) | 7.1 (≈ 3.68 µg/mL) | 0.674 (≈ 1.3 µM) | 5.2 | – | – | – | – | 0.3 | MAD (ug) human (Caco2-AB) [1, 12]: 54.43 (Caco2-AB) ug; Papp B→A at 2 h, 10 μM [2]: 60 nm/s; MAD (ug) mouse (Caco2-AB) [7, 12]: 0.16 (Caco2-AB) ug; MAD (ug) rat (Caco2-AB) [9, 12]: 0.78 (Caco2-AB) ug
